Data on 21 compounds can be found in patent publication US20250368666A1, “INDAZOLE COMPOUNDS” (TYRA BIOSCIENCES, INC., priority 2022, published 2025).

Like-named read-outs stand apart in the source and are kept apart here.

Holding throughout (test): Kinase binding assay (kinase-tagged T7 phage, affinity beads, qPCR), Kd
For experiment [1], the target named is T1, FGFR1 (Homo sapiens, UniProt P11362).
T1 construct: made in house; host or cells: E. coli (BL21-derived), T7 phage
Particulars: read-out: FGFR1 (Kd nM). How it is done:
(§1) Kinase-tagged T7 phage strains were prepared in an E. coli host derived from the BL21 strain. E. coli were grown to log-phase and infected with T7 phage and incubated with shaking at 32° C. until lysis. The lysates were centrifuged and filtered to remove cell debris. Streptavidin-coated magnetic beads were treated with biotinylated small molecule ligands for 30 minutes at room temperature to generate affinity resins for kinase assays. The liganded beads were blocked with excess biotin and washed with blocking buffer SeaBlock (Pierce), 1% BSA, 0.05% Tween 20, 1 mM DTT to remove unbound ligand and to reduce non-specific binding.
(§2) Test compounds were prepared as 111× stocks in 100% DMSO. Kds were determined using an 11-point 3-fold compound dilution series with three DMSO control points. […] The compounds were then diluted directly into the assays such that the final concentration of DMSO was 0.9%. All reactions performed in polypropylene 384-well plate. Each was a final volume of 0.02 ml. […] The kinase concentration in the eluates was measured by qPCR.
(§3) Binding constants were calculated with a standard dose-response curve using the Hill equation: […]
(§4) The Hill Slope was set to −1. Curves were fitted using a non-linear least square fit with the Levenberg-Marquardt algorithm.

The target of experiment [2] is T2, FGFR2 (Homo sapiens, UniProt P21802).
T2 construct: made in house; host or cells: E. coli (BL21-derived), T7 phage
Particulars: read-out: FGFR2 (Kd nM). How it is done: as §1, §2, §3, §4

Experiment [3] concerns the target T3, FGFR3 (Homo sapiens, UniProt P22607).
T3 construct: made in house; host or cells: E. coli (BL21-derived), T7 phage
Particulars: read-out: FGFR3 (Kd nM). As to the method: as §1, §2, §3, §4

The target of experiment [4] is T4, FGFR3 (V555M) (Homo sapiens, UniProt P22607, V555M).
T4 construct: made in house; host or cells: E. coli (BL21-derived), T7 phage
Particulars: V555M mutant; read-out: FGFR3 (V555M) (Kd nM). As to the method:
as §1, §2, §3, §4

Experiment [5] concerns the target T5, FGFR4 (Homo sapiens, UniProt P22455).
T5 construct: made in house; host or cells: E. coli (BL21-derived), T7 phage
The conditions noted are these: read-out: FGFR4 (Kd nM). As to the method:
as §1, §2, §3, §4

Where [6] appears, read: kinase binding assay, 11-point 3-fold dilution series.

T3 sequence (P22607 23-806): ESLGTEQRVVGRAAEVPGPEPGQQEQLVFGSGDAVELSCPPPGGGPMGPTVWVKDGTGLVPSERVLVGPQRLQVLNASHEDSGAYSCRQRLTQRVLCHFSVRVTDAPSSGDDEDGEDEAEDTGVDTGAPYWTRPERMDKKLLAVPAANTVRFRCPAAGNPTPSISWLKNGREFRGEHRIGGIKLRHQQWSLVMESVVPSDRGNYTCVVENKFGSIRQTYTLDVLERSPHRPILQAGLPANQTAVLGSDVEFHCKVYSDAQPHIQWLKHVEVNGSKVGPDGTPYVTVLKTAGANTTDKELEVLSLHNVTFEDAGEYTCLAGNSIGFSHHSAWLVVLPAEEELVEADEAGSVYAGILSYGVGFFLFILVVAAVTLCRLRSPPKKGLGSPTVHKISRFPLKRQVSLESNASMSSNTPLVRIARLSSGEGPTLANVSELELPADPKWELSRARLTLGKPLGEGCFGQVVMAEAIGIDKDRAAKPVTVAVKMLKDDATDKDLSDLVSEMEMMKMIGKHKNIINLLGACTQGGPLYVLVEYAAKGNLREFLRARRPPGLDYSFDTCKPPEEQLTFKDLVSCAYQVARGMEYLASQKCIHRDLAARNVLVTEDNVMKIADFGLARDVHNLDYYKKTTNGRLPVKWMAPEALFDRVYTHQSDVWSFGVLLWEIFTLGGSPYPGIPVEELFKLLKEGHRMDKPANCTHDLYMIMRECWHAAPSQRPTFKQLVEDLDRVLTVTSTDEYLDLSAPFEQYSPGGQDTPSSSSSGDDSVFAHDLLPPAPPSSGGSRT
T1 sequence (P11362 22-822): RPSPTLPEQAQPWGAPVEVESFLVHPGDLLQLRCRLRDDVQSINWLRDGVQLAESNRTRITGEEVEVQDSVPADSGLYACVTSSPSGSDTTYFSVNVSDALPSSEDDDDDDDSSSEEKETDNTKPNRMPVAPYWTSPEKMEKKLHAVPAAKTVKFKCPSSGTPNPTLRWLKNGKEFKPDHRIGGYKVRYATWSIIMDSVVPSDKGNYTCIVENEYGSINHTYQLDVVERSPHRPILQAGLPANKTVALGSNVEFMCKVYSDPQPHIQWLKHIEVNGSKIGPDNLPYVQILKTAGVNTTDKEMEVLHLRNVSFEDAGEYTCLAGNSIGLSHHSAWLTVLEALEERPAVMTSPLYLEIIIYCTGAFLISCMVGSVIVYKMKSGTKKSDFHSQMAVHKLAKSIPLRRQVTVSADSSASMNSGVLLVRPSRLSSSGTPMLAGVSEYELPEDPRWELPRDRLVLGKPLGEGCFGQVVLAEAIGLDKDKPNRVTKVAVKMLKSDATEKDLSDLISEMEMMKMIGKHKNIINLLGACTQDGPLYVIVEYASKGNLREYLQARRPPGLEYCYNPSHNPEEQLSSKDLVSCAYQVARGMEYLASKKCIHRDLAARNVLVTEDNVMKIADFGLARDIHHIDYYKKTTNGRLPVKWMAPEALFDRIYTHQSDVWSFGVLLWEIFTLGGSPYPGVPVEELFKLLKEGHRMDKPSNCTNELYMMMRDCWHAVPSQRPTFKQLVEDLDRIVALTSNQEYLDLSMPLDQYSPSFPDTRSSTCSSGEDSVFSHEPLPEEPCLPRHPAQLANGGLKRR
T4 sequence (P22607 23-806 V555M): as the sequence (P22607 23-806) above, with V533M counted along it
T5 sequence (P22455 22-802): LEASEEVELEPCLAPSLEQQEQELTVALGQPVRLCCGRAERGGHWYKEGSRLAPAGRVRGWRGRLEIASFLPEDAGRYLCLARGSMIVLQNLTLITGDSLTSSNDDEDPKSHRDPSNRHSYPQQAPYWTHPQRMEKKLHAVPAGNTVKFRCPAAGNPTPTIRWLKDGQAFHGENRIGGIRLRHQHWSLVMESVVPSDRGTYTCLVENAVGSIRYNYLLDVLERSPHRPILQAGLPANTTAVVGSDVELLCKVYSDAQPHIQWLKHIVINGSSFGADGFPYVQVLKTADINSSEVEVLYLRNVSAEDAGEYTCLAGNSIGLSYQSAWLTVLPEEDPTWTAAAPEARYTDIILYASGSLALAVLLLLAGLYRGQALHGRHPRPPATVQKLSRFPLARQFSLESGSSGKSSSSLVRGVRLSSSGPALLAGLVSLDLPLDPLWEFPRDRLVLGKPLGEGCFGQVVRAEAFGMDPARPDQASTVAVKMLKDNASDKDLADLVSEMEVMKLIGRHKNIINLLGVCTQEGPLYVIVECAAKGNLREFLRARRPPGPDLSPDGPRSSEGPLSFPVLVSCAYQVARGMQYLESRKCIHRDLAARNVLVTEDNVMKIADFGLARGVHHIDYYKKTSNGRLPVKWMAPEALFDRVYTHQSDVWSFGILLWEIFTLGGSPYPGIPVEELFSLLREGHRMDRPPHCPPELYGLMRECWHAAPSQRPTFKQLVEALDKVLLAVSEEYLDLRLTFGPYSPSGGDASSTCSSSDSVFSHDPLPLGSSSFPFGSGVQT
T2 sequence (P21802 22-821): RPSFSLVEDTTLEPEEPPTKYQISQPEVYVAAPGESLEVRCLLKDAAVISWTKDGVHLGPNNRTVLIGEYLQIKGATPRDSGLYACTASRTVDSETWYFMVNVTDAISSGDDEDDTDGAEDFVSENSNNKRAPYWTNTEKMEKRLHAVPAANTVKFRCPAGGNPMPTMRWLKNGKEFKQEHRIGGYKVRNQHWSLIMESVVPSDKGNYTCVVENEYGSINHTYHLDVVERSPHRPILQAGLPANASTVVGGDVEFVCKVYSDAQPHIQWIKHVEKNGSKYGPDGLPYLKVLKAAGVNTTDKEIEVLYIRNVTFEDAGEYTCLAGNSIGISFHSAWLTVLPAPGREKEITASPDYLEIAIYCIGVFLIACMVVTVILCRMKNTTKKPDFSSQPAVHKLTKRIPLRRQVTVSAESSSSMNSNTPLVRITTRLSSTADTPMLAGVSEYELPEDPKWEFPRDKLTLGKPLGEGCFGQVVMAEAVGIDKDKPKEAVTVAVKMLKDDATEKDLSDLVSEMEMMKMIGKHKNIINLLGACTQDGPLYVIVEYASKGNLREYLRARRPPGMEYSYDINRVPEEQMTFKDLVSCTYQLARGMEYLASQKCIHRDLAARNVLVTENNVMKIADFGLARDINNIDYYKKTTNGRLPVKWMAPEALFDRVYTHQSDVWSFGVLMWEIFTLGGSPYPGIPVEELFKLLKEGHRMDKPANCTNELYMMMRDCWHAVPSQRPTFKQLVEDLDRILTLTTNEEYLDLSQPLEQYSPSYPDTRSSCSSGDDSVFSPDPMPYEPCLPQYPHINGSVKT

On to `CC(C)NCC1(C)CN(c2ccc(-c3n[nH]c4ccc(O[C@H](C)c5c(Cl)cncc5Cl)c(F)c34)cn2)C1` [Example 190, (R)-N-((1-(5-(5-(1-(3,5-dichloro-pyridin-4-yl)ethoxy)-4-fluoro-1H-indazol-3-yl)pyridin-2-yl)-3-methylazetidin-3-yl)methyl)propan-2-amine], for which the Kd in experiment [1] lay in the range of 300 to 1000 nM; in experiment [2], 300 to 1000 nM; in experiment [3], 1 to 50 nM; in experiment [4], 1 to 50 nM; in experiment [5], 300 to 1000 nM.
Turning to `C[C@@H](Oc1ccc2[nH]nc(-c3ccc(N4CC(C)(NCP(C)(C)=O)C4)nc3)c2c1)c1c(Cl)cncc1Cl` [Example 230, 1-[5-[5-[(1R)-1-(3,5-dichloro-4-pyridyl)ethoxy]-1H-indazol-3-yl]-2-pyridyl]-N-(di-methylphosphoryl-methyl)-3-methyl-azetidin-3-amine], the Kd in experiment [1], in experiment [2], in experiment [3], in experiment [4] and in experiment [5] was 1 to 50 nM each time.
`C[C@@H](Oc1ccc2[nH]nc(-c3ccc(N4CC(C)(NCCC#N)C4)nn3)c2c1)c1c(Cl)cncc1Cl` [Example 313, (R)-3-((1-(6-(5-(1-(3,5-dichloropyridin-4-yl)ethoxy)-1H-indazol-3-yl)pyridazin-3-yl)-3-methylazetidin-3-yl)amino)propane-nitrile]: the Kd in experiment [1] and in experiment [3] was 1 to 50 nM throughout.
With `C[C@@H](Oc1ccc2[nH]nc(-c3cnc(N4CC(CC#N)(N(C)C)C4)c(F)c3)c2c1)c1c(Cl)cncc1Cl` [Example 252, (R)-2-(1-(5-(5-(1-(3,5-dichloropyridin-4-yl)ethoxy)-1H-indazol-3-yl)-3-fluoropyridin-2-yl)-3-(dimethyl-amino)azeti-din-3-yl)acetonitrile], the dissociation constant Kd in experiment [1] and in experiment [3] was 1 to 50 nM throughout.
Regarding `C[C@@H](Oc1ccc2[nH]nc(-c3ccc(N4CC[C@@](N)(c5ccnn5C)C4)nn3)c2c1)c1c(Cl)cncc1Cl` [Example 417, (S)-1-(6-(5-((R)-1-(3,5-dichloropyridin-4-yl)ethoxy)-1H-indazol-3-yl)pyridazin-3-yl)-3-(1-methyl-1H-pyrazol-5-yl)pyrrolidin-3-amine], the Kd in experiment [1] (setting [6]) and in experiment [3] (setting [6]) was 1 to 50 nM throughout.
As for `C[C@@H](Oc1ccc2[nH]nc(-c3ccc(N4CC(C)(NCC(F)F)C4)nn3)c2c1)c1c(Cl)cncc1Cl` [Example 312, (R)-1-(6-(5-(1-(3,5-dichloropyridin-4-yl)ethoxy)-1H-indazol-3-yl)pyridazin-3-yl)-N-(2,2-difluoroethyl)-3-methylazetidin-3-amine], the dissociation constant Kd in experiment [1] and in experiment [3] was 1 to 50 nM each time.
For `C[C@@H](Oc1ccc2[nH]nc(-c3ccc(N4CC[C@@](N)(Cc5ccn(C)n5)C4)nn3)c2c1)c1c(Cl)cncc1Cl` [Example 427, (R)-1-(6-(5-((R)-1-(3,5-dichloropyridin-4-yl)ethoxy)-1H-indazol-3-yl)pyridazin-3-yl)-3-((1-methyl-1H-pyrazol-3-yl)methyl)pyrrolidin-3-amine], the Kd in experiment [1] (setting [6]) and in experiment [3] (setting [6]) was 1 to 50 nM each time.
Consider `C[C@@H](Oc1ccc2[nH]nc(-c3ccc(N4CCC(N)(CCS(C)(=O)=O)CC4)nn3)c2c1)c1c(Cl)cncc1Cl` [Example 398, (R)-1-(6-(5-(1-(3,5-dichloropyridin-4-yl)ethoxy)-1H-indazol-3-yl)pyridazin-3-yl)-4-(2-(methylsulfonyl)ethyl) piperidin-4-amine], for which the Kd in experiment [1] (setting [6]) and in experiment [3] (setting [6]) was 1 to 50 nM throughout.
Regarding `COc1cc2[nH]nc(-c3ccc(N4CCC(C)(N)C4)nc3)c2cc1O[C@H](C)c1c(Cl)cncc1Cl` (stereo in doubt) [Example 380, (R)-1-(5-(5-((R)-1-(3,5-dichloropyridin-4-yl)ethoxy)-6-methoxy-1H-indazol-3-yl)pyridin-2-yl)-3-methylpyrrolidin-3-amine], the Kd in experiment [1] and in experiment [3] was 1 to 50 nM each time.
Turning to `C[C@@H](Oc1ccc2[nH]nc(-c3ccc(N4CC[C@](N)(Cc5ccnn5C)C4)nn3)c2c1)c1c(Cl)cncc1Cl` [Example 424, (S)-1-(6-(5-((R)-1-(3,5-dichloropyridin-4-yl)ethoxy)-1H-indazol-3-yl)pyridazin-3-yl)-3-((1-methyl-1H-pyrazol-5-yl)methyl)pyrrolidin-3-amine], the Kd in experiment [1] (setting [6]) and in experiment [3] (setting [6]) was 1 to 50 nM each time.
In the case of `C[C@@H](Oc1ccc2[nH]nc(-c3cnc(N4CC(C)(NCC(=O)N(C)C)C4)c(F)c3)c2c1)c1c(Cl)cncc1Cl` [Example 311, (R)-2-((1-(5-(5-(1-(3,5-dichloropyridin-4-yl)ethoxy)-1H-indazol-3-yl)-3-fluoropyridin-2-yl)-3-methylazetidin-3-yl)amino)-N,N-dimethylacetamide], the Kd in experiment [1] and in experiment [3] was 1 to 50 nM in each case.
Turning to `Cc1ncc(Cl)c([C@@H](C)Oc2ccc3[nH]nc(-c4cnc(N5CC(CC#N)(NCC(C)C)C5)c(F)c4)c3c2)c1Cl` [Example 254, (R)-2-(1-(5-(5-(1-(3,5-Dichloro-2-methylpyridin-4-yl)ethoxy)-1H-indazol-3-yl)-3-fluoropyridin-2-yl)-3-(iso-butylamino)azeti-din-3-yl)acetonitrile], the Kd in experiment [1] fell in the range of 50 to 300 nM; in experiment [3] it was 1 to 50 nM.
For `C[C@@H](Oc1ccc2[nH]nc(-c3ccc(N4CC(N)(CCO)C4)nc3)c2c1)c1c(Cl)cncc1Cl` [Example 279, (R)-2-(3-amino-1-(5-(5-(1-(3,5-dichloropyridin-4-yl)ethoxy)-1H-indazol-3-yl)pyridin-2-yl)azetidin-3-yl)ethanol], the Kd in experiment [1] and in experiment [3] was 1 to 50 nM in each case.
Turning to `CC(C)N(C)C1(CC#N)CN(c2ncc(-c3n[nH]c4ccc(O[C@H](C)c5c(Cl)cncc5Cl)cc34)cc2F)C1` [Example 257, (R)-2-(1-(5-(5-(1-(3,5-dichloropyridin-4-yl)ethoxy)-1H-indazol-3-yl)-3-fluoropyridin-2-yl)-3-(isopropyl(methyl)a-mino)azetidin-3-yl)acetonitrile], the Kd in experiment [1] fell in the range of 50 to 300 nM; in experiment [3], 1 to 50 nM.
Consider `C[C@@H](Oc1ccc2[nH]nc(-c3cnc(N4CC(N)(CC(F)F)C4)c(F)c3)c2c1)c1c(Cl)cncc1Cl` [Example 394, (R)-1-(5-(5-(1-(3,5-dichloropyridin-4-yl)ethoxy)-1H-indazol-3-yl)-3-fluoropyridin-2-yl)-3-(2,2-difluoro-ethyl)azetidin-3-amine], for which the Kd in experiment [1] (setting [6]) and in experiment [3] (setting [6]) was 1 to 50 nM each time.
`C[C@@H](Oc1ccc2[nH]nc(-c3cnc(N4CC(N)(CC5CCCO5)C4)c(F)c3)c2c1)c1c(Cl)cncc1Cl` (stereo partly drawn) [Example 288, 1-(5-(5-((R)-1-(3,5-dichloropyridin-4-yl)ethoxy)-1H-indazol-3-yl)-3-fluoropyridin-2-yl)-3-((tetrahydrofuran-2-yl)methyl)azetidin-3-amine]: the Kd in experiment [1] and in experiment [3] was 1 to 50 nM throughout.
Regarding `C[C@@H](Oc1ccc2[nH]nc(-c3cnc(N4CC[C@](N)(Cc5ccn(C)n5)C4)c(F)c3)c2c1)c1c(Cl)cncc1Cl` [Example 428, (S)-1-(5-(5-((R)-1-(3,5-dichloropyridin-4-yl)ethoxy)-1H-indazol-3-yl)-3-fluoropyridin-2-yl)-3-((1-methyl-1H-pyrazol-3-yl)methyl)pyrrolidin-3-amine], the Kd in experiment [1] (setting [6]) and in experiment [3] (setting [6]) was 1 to 50 nM throughout.
`C[C@@H](Oc1ccc2[nH]nc(-c3cnc(N4CC[C@@](N)(c5ccnn5C)C4)c(F)c3)c2c1)c1c(Cl)cncc1Cl` [Example 405, (S)-1-(5-(5-((R)-1-(3,5-dichloropyridin-4-yl)ethoxy)-1H-indazol-3-yl)-3-fluoropyridin-2-yl)-3-(1-methyl-1H-pyrazol-5-yl)pyrrolidin-3-amine]: the dissociation constant Kd in experiment [1] (setting [6]) and in experiment [3] (setting [6]) was 1 to 50 nM throughout.
With `C[C@@H](Oc1ccc2[nH]nc(-c3ccc(N4CC[C@](C)(N)C4)nn3)c2c1)c1c(Cl)cncc1Cl` [Example 407, (S)-1-(6-(5-((R)-1-(3,5-dichloropyridin-4-yl)ethoxy)-1H-indazol-3-yl)pyridazin-3-yl)-3-methylpyrrolidin-3-amine], the dissociation constant Kd in experiment [1] (setting [6]) and in experiment [3] (setting [6]) was 1 to 50 nM each time.
Consider `CCC(C)C1(N)CN(c2ncc(-c3n[nH]c4ccc(O[C@H](C)c5c(Cl)cncc5Cl)cc34)cc2F)C1` (stereo partly drawn) [Example 280, 1-[5-[5-[(1R)-1-(3,5-dichloro-4-pyridyl)ethoxy]-1H-indazol-3-yl]-3-fluoro-2-pyridyl]-3-sec-butyl-azetidin-3-amine], for which the Kd in experiment [1] and in experiment [3] was 1 to 50 nM throughout.
On to `C[C@@H](Oc1ccc2[nH]nc(-c3cnc(N4CC[C@](N)(c5ccnn5C)C4)c(F)c3)c2c1)c1c(Cl)cncc1Cl` [Example 404, (R)-1-(5-(5-((R)-1-(3,5-dichloropyridin-4-yl)ethoxy)-1H-indazol-3-yl)-3-fluoropyridin-2-yl)-3-(1-methyl-1H-pyrazol-5-yl)pyrrolidin-3-amine], for which the Kd in experiment [1] (setting [6]) and in experiment [3] (setting [6]) was 1 to 50 nM in each case.
